According to article PMC11267533, “Ligandability at the Membrane Interface of GPx4 Revealed through a Reverse Micelle Fragment Screening Platform” (JACS Au, 2024):

Experiments:
[1] = biological target: T1, aqueous (water-solubilized) GPx4 (Homo sapiens, UniProt P36969, U73G); assay: 15N-HSQC CSP binding experiment with GPx4 in bulk aqueous conditions; conditions: for Binding to aqueous GPx4 (CSPs versus mmRM): 400 μM fragment, 100 μM GPx4, 1% DMSO; for Binding to aqueous GPx4 (CSPs): 15 mM fragment, 100 μM GPx4, 5% DMSO
T1 construct: Truncated U46G-GPx4 with a TEV cleavable poly-histidine tag was inserted into vector; poly-histidine tag with TEV cleavage site; host or cells: BL21 (DE3) E. coli
T1 sequence (P36969 1-170 isoform P36969-2 U46G): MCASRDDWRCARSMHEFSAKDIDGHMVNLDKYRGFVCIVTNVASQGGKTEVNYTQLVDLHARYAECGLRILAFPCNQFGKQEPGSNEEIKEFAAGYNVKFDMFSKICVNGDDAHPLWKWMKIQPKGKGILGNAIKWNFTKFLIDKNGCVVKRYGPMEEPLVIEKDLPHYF
Procedure: Next, we sought to understand whether fragment hits were solely bound to the membrane-embedded form of GPx4 or could also bind to the aqueous form. We performed aqueous binding experiments with 3 fragment hits with varying hydrophobicities. Of the fragment hits with Kd < 1 mM, the most hydrophobic fragment (fragment 5, cLog D 2.05, 5-hydroxy-1,3-benzoxathiol-2-one) and a hydrophilic fragment with the strongest affinity (fragment 6, cLog D −2.14, (2-methoxyethyl)(4-pyridinylmethyl)amine hydrochloride) were selected, along with a compound with an amphipathic structure and only modest hydrophobicity (fragment 1, cLog D 1.05, 4-(phenylamino)-1,2-dihydropyridin-2-one). Aqueous GPx4 was combined with 400 μM of either fragments 1, 5, or 6 to directly compare to the mmRM experiments. […] Since our fragments have variable degrees of solubility and partitioning, we realized that a hydrophilic fragment like 6 may partition into the water core of the mmRM, essentially causing a concentration effect as observed previously.[32],[33] To rule this out, the concentration of the fragments was increased to 15 mM in an aqueous sample, which would be the effective concentration if all of the fragments partitioned completely into the RM water core. […] DLS measurements were also collected to check for fragment aggregation in the aqueous conditions.[58] […] Inspection of ^1H NMR spectra confirmed that the aggregation observed at high concentration of fragments 1 and 5 is a small portion of the overall fragment concentration and that most of the fragment is in solution.
Fragments 1, 5, and 6 were selected to perform proof-of-concept experiments in bulk aqueous conditions. 400 μM and 15 mM aliquots of fragment were vacuum-dried overnight to remove excess DMSO. An apo GPx4 reference was collected with 1% DMSO or 5% DMSO to ensure that CSP calculations took into account DMSO needed for fragment solubilization. 100 μM GPx4 was added to the dried fragments, and DMSO was added to a total of 1% for the 400 μM and 5% for the 15 mM fragment experiments. These percentages were the lowest amounts needed to solubilize the fragments in solution. Prior to experimentation, the pH of the sample was checked to ensure that no change was observed upon the addition of the fragments. However, the 100 mM Bis-Tris at pH 6.0 ensured that the pH was not altered. ^15N-HSQC experiments were collected, and CSPs were analyzed and compared to the top-shifting resonances determined from the mmRM experiments. DLS measurements were collected to assess fragment aggregation in the aqueous conditions using a Malvern Zetasizer Nano-S instrument.

[2] = DLS check for fragment aggregation in aqueous conditions; format: physicochemical; conditions: 15 mM, 5% DMSO
Procedure: Next, we sought to understand whether fragment hits were solely bound to the membrane-embedded form of GPx4 or could also bind to the aqueous form. We performed aqueous binding experiments with 3 fragment hits with varying hydrophobicities. Of the fragment hits with Kd < 1 mM, the most hydrophobic fragment (fragment 5, cLog D 2.05, 5-hydroxy-1,3-benzoxathiol-2-one) and a hydrophilic fragment with the strongest affinity (fragment 6, cLog D −2.14, (2-methoxyethyl)(4-pyridinylmethyl)amine hydrochloride) were selected, along with a compound with an amphipathic structure and only modest hydrophobicity (fragment 1, cLog D 1.05, 4-(phenylamino)-1,2-dihydropyridin-2-one). Aqueous GPx4 was combined with 400 μM of either fragments 1, 5, or 6 to directly compare to the mmRM experiments. […] Since our fragments have variable degrees of solubility and partitioning, we realized that a hydrophilic fragment like 6 may partition into the water core of the mmRM, essentially causing a concentration effect as observed previously.[32],[33] […]
Fragments 1, 5, and 6 were selected to perform proof-of-concept experiments in bulk aqueous conditions. […] However, the 100 mM Bis-Tris at pH 6.0 ensured that the pH was not altered. ^15N-HSQC experiments were collected, and CSPs were analyzed and compared to the top-shifting resonances determined from the mmRM experiments. […]

[3] = biological target: T2, GPx4 bound to DPC micelles (Homo sapiens, UniProt P36969, U73G); assay: 15N-HSQC CSP experiment with GPx4 bound to DPC micelles; format: binding; conditions: 400 μM analogue, 0.4% DMSO
T2 construct: Truncated U46G-GPx4 with a TEV cleavable poly-histidine tag was inserted into vector; poly-histidine tag with TEV cleavage site; host or cells: BL21 (DE3) E. coli
T2 sequence (P36969 1-170 isoform P36969-2 U46G): T1 sequence (P36969 1-170 isoform P36969-2 U46G)
Description: To investigate whether or not these fragments could be built upon and progress to higher affinity binders and potentially inhibitors, a secondary screening approach was used to find analogues of the original fragments. A fragment growing approach was followed due to the high success rate of improving fragment hits.[61],[62] Fragment growing improves binding affinity, or other properties, with the addition of different substitutions and/or expansions.[20] Commercially available analogues of fragments 1 and 5 were found by searching the ChemBridge (San Diego, CA) catalog for analogues with a 60% similarity for fragment 1 and a 70% similarity for fragment 5. A subset of analogues for each fragment was purchased and tested. These two fragments were the main focus for fragment progression due to their observed ability to partition into bilayers and bind to inhibitory regions of membrane-bound GPx4. Fragment 6 was not investigated further since it resides mainly in the water core of the mmRM model, and while interesting, it falls outside of our focus for this study. While all the five selected fragment 1 analogues produced reasonable CSPs in the membrane interface of GPx4; none produced titration curves that indicated enhanced binding (Table S1). […]

Row | Binding to aqueous GPx4 (CSPs) [1] | CSPs of aqueous GPx4 ([1]; 400 μM analogue, 1.5% DMSO) | CSPs of GPx4 bound to DPC micelles [3] | SMILES | Binding to aqueous GPx4 (CSPs versus mmRM) [1] | Fragment aggregation by DLS [2]
1 | neither produced significant CSPs | – | – | O=c1cc(Nc2ccccc2)cc[nH]1 [Fragment 1, 4-(phenylamino)-1,2-dihydropyridin-2-one] | do not bind strongly to the aqueous form of the protein | a small population of large aggregating species
2 | neither produced significant CSPs | – | – | COCCNCc1ccncc1.Cl [Fragment 6, (2-methoxyethyl)(4-pyridinylmethyl)amine hydrochloride] | do not bind strongly to the aqueous form of the protein | –
3 | – | little to no shifting | reasonable CSPs were observed | O=c1oc2c(-c3ccc(Cl)c(Cl)c3)cc(O)cc2s1 [Analog 5.5] | – | –

Row | SMILES | Binding to aqueous GPx4 (CSPs) [1] | CSPs of aqueous GPx4 ([1]; 400 μM analogue, 1.5% DMSO) | CSPs of GPx4 bound to DPC micelles [3] | Binding to aqueous GPx4 (CSPs versus mmRM) [1] | Fragment aggregation by DLS [2]
4 | O=c1oc2ccc(O)cc2s1 [Fragment 5, 5-hydroxy-1,3-benzoxathiol-2-one] | does produce some CSPs that could be detected by a soluble screen | – | – | do not bind strongly to the aqueous form of the protein | a small population of large aggregating species
